Measurements reported in ChEMBL document CHEMBL3856235, “Characterization of 3,3-dimethyl substituted N-aryl piperidines as potent microsomal prostaglandin E synthase-1 inhibitors” (Bioorg Med Chem Lett, 2016).
pIC50: −log10 of the molar value. Blank lines part the entries; values can stand above or below the compound they belong to.

Key:
[1] = biological target: T1, Prostaglandin E synthase (Homo sapiens, UniProt O14684); assay: Inhibition of human mPGES-1 expressed in 293E cells assessed as reduction in conversion of PGH2 to PGE2 after 1.5 min by LC/MS analysis; format: cell-based
T1 sequence (O14684 whole entry): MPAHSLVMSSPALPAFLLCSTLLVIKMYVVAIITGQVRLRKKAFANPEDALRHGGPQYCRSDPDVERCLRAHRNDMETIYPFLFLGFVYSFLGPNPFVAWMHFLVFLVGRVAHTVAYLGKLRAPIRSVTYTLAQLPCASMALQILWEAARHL

[2] = biological target: T1, Prostaglandin E synthase; assay: Inhibition of mPGES-1 in human A549 cells assessed as reduction in recombinant human interleukin-1 beta-induced PGE2 production preincubated for 30 mins measured after 18 hrs by ELISA; format: cell-based
[3] = biological target: T1, Prostaglandin E synthase
Description: Inhibition of mPGES-1 in human whole blood assessed as reduction in LPS-induced PGE2 production preincubated for 30 mins followed by LPS stimulation for 20 to 24 hrs by LC/MS/MS analysis

[4] = Drug metabolism in rat liver microsomes at 4 uM; format: ADME; conditions: read-out: Drug metabolism
[5] = Drug metabolism in dog liver microsomes at 4 uM; format: ADME, Canis lupus familiaris; conditions: read-out: Drug metabolism
[6] = Drug metabolism in human liver microsomes at 4 uM; format: ADME; conditions: read-out: Drug metabolism
[7] = biological target: CYP2C9 (Homo sapiens, UniProt P11712); assay: Inhibition of CYP2C9 in human hepatic microsomes assessed as reduction in probe substrate metabolism at 10 uM; format: ADME; conditions: liver microsomes
CYP2C9, sequence (P11712 whole entry): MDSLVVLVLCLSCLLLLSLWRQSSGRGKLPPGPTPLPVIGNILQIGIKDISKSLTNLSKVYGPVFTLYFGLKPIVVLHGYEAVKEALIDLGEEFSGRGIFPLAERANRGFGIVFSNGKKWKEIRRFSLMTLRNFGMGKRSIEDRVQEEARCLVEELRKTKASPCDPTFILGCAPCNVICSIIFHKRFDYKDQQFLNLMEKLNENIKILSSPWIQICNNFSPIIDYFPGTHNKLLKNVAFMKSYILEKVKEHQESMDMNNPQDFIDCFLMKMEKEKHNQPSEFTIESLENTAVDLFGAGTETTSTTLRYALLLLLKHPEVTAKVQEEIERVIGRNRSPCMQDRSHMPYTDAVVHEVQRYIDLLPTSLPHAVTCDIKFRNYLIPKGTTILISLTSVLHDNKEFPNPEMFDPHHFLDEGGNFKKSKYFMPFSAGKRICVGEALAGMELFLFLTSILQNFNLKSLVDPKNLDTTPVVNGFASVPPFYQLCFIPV

[8] = biological target: CYP2D6 (Homo sapiens, UniProt P10635); assay: Inhibition of CYP2D6 in human hepatic microsomes assessed as reduction in probe substrate metabolism at 10 uM; format: ADME; conditions: liver microsomes
CYP2D6, sequence (P10635 whole entry): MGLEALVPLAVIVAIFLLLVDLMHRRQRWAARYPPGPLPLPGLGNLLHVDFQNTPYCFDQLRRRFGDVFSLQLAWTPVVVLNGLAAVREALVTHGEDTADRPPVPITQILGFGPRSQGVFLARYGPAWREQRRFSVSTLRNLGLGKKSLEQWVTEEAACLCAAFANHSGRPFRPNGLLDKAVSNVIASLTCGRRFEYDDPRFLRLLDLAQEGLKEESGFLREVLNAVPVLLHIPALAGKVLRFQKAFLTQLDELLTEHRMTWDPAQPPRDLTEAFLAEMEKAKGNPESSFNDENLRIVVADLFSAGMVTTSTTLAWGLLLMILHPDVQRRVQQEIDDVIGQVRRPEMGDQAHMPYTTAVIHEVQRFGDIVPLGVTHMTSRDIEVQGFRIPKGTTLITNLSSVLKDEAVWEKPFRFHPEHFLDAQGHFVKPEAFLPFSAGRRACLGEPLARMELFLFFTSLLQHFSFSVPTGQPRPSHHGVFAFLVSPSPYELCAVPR

[9] = biological target: T2, CYP3A4 (Homo sapiens, UniProt P08684); assay: Inhibition of CYP3A4 in human hepatic microsomes assessed as reduction in probe substrate metabolism at 10 uM; format: ADME; conditions: liver microsomes
T2 sequence (P08684 whole entry): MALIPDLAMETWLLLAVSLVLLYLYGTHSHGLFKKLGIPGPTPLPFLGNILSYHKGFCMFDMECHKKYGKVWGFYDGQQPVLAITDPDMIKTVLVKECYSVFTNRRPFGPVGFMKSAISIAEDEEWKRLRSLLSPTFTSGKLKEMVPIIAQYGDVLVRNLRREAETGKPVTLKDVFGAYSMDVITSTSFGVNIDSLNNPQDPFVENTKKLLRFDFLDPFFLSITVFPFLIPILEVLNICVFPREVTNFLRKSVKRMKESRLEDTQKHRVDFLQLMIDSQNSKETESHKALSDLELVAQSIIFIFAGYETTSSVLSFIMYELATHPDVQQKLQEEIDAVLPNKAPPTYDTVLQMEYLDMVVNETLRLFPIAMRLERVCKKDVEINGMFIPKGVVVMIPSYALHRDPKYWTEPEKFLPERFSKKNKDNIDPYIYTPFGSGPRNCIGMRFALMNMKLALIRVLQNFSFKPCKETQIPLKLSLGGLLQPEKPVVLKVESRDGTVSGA

[10] = Clearance in Beagle dog at 1 mg/kg, iv; format: ADME, organism-based, Canis lupus familiaris; conditions: in vivo
[11] = Volume of distribution at steady state in Beagle dog at 1 mg/kg, iv; format: ADME, organism-based, Canis lupus familiaris; conditions: in vivo, read-out: Vdss
[12] = Oral bioavailability in Beagle dog at 15 mg/kg; format: ADME, organism-based, Canis lupus familiaris; conditions: in vivo
[13] = Time at which plasma concentration remains above dog whole blood IC50 level in Beagle dog at 3 mg/kg, po; format: ADME, organism-based, Canis lupus familiaris; conditions: in vivo
[14] = Inhibition of rat mPGES-1
[15] = biological target: T3, Prostaglandin E synthase (Canis lupus familiaris, UniProt A0SYQ0); assay: Inhibition of dog mPGES-1
T3 sequence (A0SYQ0 whole entry): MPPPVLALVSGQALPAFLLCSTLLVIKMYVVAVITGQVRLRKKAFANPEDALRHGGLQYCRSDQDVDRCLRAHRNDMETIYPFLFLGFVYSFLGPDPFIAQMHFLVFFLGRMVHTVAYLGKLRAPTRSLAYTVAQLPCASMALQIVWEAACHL

[16] = biological target: T3, Prostaglandin E synthase; assay: Inhibition of mPGES-1 in dog whole blood; format: tissue-based
[17] = Clearance in rat at 1 mg/kg, iv; format: ADME, organism-based; conditions: in vivo
[18] = Half life in rat at 1 mg/kg, iv; format: ADME, organism-based; conditions: in vivo
[19] = Volume of distribution at steady state in rat at 1 mg/kg, iv; format: ADME, organism-based; conditions: in vivo, read-out: Vdss
[20] = Cmax in rat at 5 mg/kg, po; format: ADME, organism-based; design: dose 5 mg/kg, route oral; conditions: in vivo
[21] = Oral bioavailability in rat at 5 mg/kg; format: ADME, organism-based; conditions: in vivo
[22] = biological target: T2, CYP3A4; assay: Time dependent inhibition of CYP3A4 in human hepatic microsomes assessed as reduction in probe substrate metabolism at 10 uM; format: ADME; conditions: liver microsomes, read-out: TDI
[23] = biological target: T1, Prostaglandin E synthase; assay: Inhibition of mPGES-1 (unknown origin)
[24] = Time at which plasma concentration remains above human whole blood IC50 level in human at 200 mg, po; format: ADME

pIC50 [1]: 8.15
pIC50 [2]: 7.14
pIC50 [3]: 7.44
SMILES: Cc1cccc2ccc(N3CC[C@H](C(=O)N[C@H]4CCCOC4)C(C)(C)C3)nc12

pIC50 [1]: 6.30
pIC50 [2]: 5.35
SMILES: CC1(C)CN(c2ccc(C(F)(F)F)cc2)CC[C@H]1C(=O)N[C@H]1CCC[C@H](CO)C1

pIC50 [1]: 8.40
pIC50 [2]: 7.52
pIC50 [3]: 7.64
SMILES: CC1(C)CN(c2ccc3cccc(Cl)c3n2)CC[C@@H]1C(=O)N[C@H]1CC[C@@H](CO)CC1

pIC50 [1]: 8.22
pIC50 [2]: 7.64
pIC50 [3]: 7.29
SMILES: Cc1cccc2ccc(N3CC[C@H](C(=O)N[C@H]4CCOC4)C(C)(C)C3)nc12

pIC50 [1]: 8.70
pIC50 [2]: 8.30
metabolised at 4 µM [4]: 16%
metabolised at 4 µM [5]: 13%
metabolised at 4 µM [6]: 20%
inhibition at 10 µM [7]: 15%
inhibition at 10 µM [8]: 0%
inhibition at 10 µM [9]: 10%
clearance [10]: 3.62 mL/min/kg
Vd [11]: 1.6 L/kg
bioavailability [12]: 74%
Time [13]: 24 h
pIC50 [14]: 5.10
pIC50 [15]: 7.96
pIC50 [16]: 7.55 to 7.64
clearance [17]: 14 mL/min/kg
half-life [18]: 2.3 h
Vd [19]: 2.3 L/kg
Cmax [20]: 2050 nM
bioavailability [21]: 100%
inhibition at 10 µM [22]: 39%
pIC50 [3]: 8.15
SMILES: Cc1cccc2ccc(N3CC[C@H](C(=O)N[C@H]4CCO[C@H](CO)C4)C(C)(C)C3)nc12

pIC50 [1]: 9.00
pIC50 [2]: 8.70
metabolised at 4 µM [4]: 64%
metabolised at 4 µM [5]: 60%
metabolised at 4 µM [6]: 46%
inhibition at 10 µM [7]: 54%
inhibition at 10 µM [8]: 4%
inhibition at 10 µM [9]: 35%
clearance [17]: 21 mL/min/kg
half-life [18]: 2.6 h
Vd [19]: 1.4 L/kg
Cmax [20]: 1450 nM
bioavailability [21]: 54%
inhibition at 10 µM [22]: 75%
pIC50 [3]: 8.70
SMILES: Cc1cccc2ccc(N3CC[C@H](C(=O)N[C@H]4CC[C@@H](CO)CC4)C(C)(C)C3)nc12

pIC50 [1]: 8.52
pIC50 [2]: 7.96
pIC50 [3]: 8.30
SMILES: CC1(C)CN(c2ccc(C(F)(F)F)cc2)CC[C@@H]1C(=O)N[C@H]1CCC[C@H](CO)C1

pIC50 [1]: 7.92
pIC50 [2]: 7.05
pIC50 [3]: 7.11
SMILES: Cc1cccc2ccc(N3CC[C@H](C(=O)N[C@H](C)C(C)C)C(C)(C)C3)nc12

pIC50 [1]: 5.43
pIC50 [2]: < 5.00
SMILES: CC1(C)CN(c2ccc3cccc(Cl)c3n2)CC[C@H]1C(=O)N[C@H]1CC[C@@H](CO)CC1

pIC50 [23]: 7.60
SMILES: Cc1cc2nc(N3CCC(C(=O)NC4CCCC4)CC3)n(-c3ccc(F)c(C)c3)c2cc1C

pIC50 [1]: 9.00
pIC50 [2]: 8.52
metabolised at 4 µM [4]: 73%
metabolised at 4 µM [5]: 57%
metabolised at 4 µM [6]: 50%
inhibition at 10 µM [7]: 64%
inhibition at 10 µM [8]: 0%
inhibition at 10 µM [9]: 43%
clearance [17]: 34 mL/min/kg
half-life [18]: 0.6 h
Vd [19]: 1.3 L/kg
Cmax [20]: 1430 nM
bioavailability [21]: 30%
inhibition at 10 µM [22]: 82%
pIC50 [3]: 9.00
SMILES: Cc1cccc2ccc(N3CC[C@H](C(=O)N[C@H]4CCC[C@H](CO)C4)C(C)(C)C3)nc12

Time [24]: 8 to 12 h
SMILES: Cc1ccc(-c2cc(C(F)(F)F)nn2-c2ccc(S(N)(=O)=O)cc2)cc1 [CELECOXIB]
